The values that follow come from patent publication US7312236B2, “Substituted (4-aminocyclohexen-1-yl)phenyl and (4-aminocyclohexen-1-yl)pyridinyl compounds as 5-HT1F agonists” (Eli Lilly and Company, priority 2004, dated 2007).

The subject of test [1] is dural protein extravasation. Briefly: Dural protein extravasation assay (trigeminal ganglion stimulation). The arrangement: species or system rats or guinea pigs. Particulars: in vivo. On the procedure:
The inhibition of dural protein extravasation is a functional assay for the neuronal mechanism of migraine. A compound's ability to inhibit dural protein extravasation can be tested as described in the following assay.
Anesthetize Harlan Sprague-Dawley rats (225-325 g) or guinea pigs from Charles River Laboratories (225-325 g) with sodium pentobarbital (intraperitoneal injection, 65 mg/kg or 45 mg/kg, respectively). For each animal, place the animal in a stereotaxic frame (David Kopf Instruments) with the incisor bar set at −3.5 mm for rats or −4.0 mm for guinea pigs. […]
Quantify the amount of Evans Blue dye in each sample using a fluorescence microscope (Zeiss) equipped with a grating monochronomator, a spectrophotometer, a computer-driven motorized stage, and an interface to a personal computer. For each dural membrane sample, measure fluorescence at 25 points (500 μm steps covering a 2.5×2.5 mm square area) using an excitation wavelength of approximately 535 nm and measuring the emission intensity at a wavelength of 600 nm. Determined the mean and standard deviation of these measurements. […]

Another test concerns rabbit saphenous vein. Briefly: Rabbit saphenous vein contraction. The conditions noted are these: Oryctolagus cuniculus. On the procedure:
Bend the tips of two 30-gauge stainless steel hypodermic needles into an L-shape and slip them into the lumen of the polyethylene tubing. Gently push vein tissue from the cannula onto the needles. Separate the needles and attach the lower needle with thread to a stationary glass rod and the upper needle with thread to a force transducer (Statham UC-3). Mount the tissues in organ baths containing 10 mL of modified Krebs' solution. Maintain tissue bath solutions at 37° C. and […] […] Apply an initial optimum resting force of 4 grams to the vein tissue. Record isometric contractions as changes in grams of force on a Beckman Dynograph with Statham UC-3 transducers and microscale accessory attachments. […] Flush the bath, allow the tissue to re-equilibrate under a 4 gram force, add test compound and record the force of contraction. Add additional compound to achieve the next concentration in a range of compound concentrations to generate cumulative agonist concentration-response curves for each test compound. Tissues can be used to generate up to two agonist concentration-response curves. […] Two important parameters can be measured with this vasoconstriction assay, saphenous vein contraction (EC50) and maximal contraction as a percentage of the maximal KCl response (%max KCl).

As usually defined, the EC50 is the midpoint of the concentration-response curve. Low readings indicate an effect from little substance, high ones a need for much substance. In the case of `CNS(=O)(=O)Cc1ccc2[nH]cc(CCN(C)C)c2c1` [sumatriptan], in test [1], the “extravasation inhibition ID50” value came to 2.6e-08 mmol/kg. In addition, the concentration for a half-maximal effect (EC50) in the test with rabbit saphenous vein came to 660 nM.
